In article PMC5374206, “Anti-bacterial and Anti-biofilm Evaluation of Thiazolopyrimidinone Derivatives Targeting the Histidine Kinase YycG Protein of Staphylococcus epidermidis” (Frontiers in Microbiology, 2017):
≈ marks a conversion by molar mass, not a printed value.

Legend:
[1] = system: S. epidermidis ATCC 35984 mature biofilms; experiment: Cell viability in mature (24 h) biofilms by CLSM with Live/Dead staining; format: cell-based, Staphylococcus epidermidis; details: 4 × MIC, 16 h, 24 h mature biofilm; for PI fluorescence quantity (dead cells) / SYTO9 fluorescence quantity (viable cells): Image J
Protocol: The effect of the derivatives on cell viability in mature biofilms (24 h old) was determined using the Live/Dead Bacterial Viability method (Live/Dead BacLight, Molecular Probes, USA). […] The mature biofilms were stained with SYTO 9 and propidium iodide at room temperature for 15 min, following gentle washing of the dishes with normal saline, and were observed under a Leica TCS SP5 CLSM with a 63 × 1.4-NA oil-immersion objective. Further, image analysis was performed using IMARIS 7.0.0 software (Bitplane). The fluorescence quantities of biofilm were determined using Image J software. This assay was performed in triplicate and similar results were obtained.

[2] = system: S. epidermidis ATCC 35984; experiment: MIC and MBC tube-dilution assay; format: cell-based; details: Staphylococcus epidermidis; for MBC: ATCC35984, 99.9% reduction of inoculum; for MIC: ATCC35984, MHB, 16–20 h
Protocol: (§1) The MIC assays of the derivatives of compound 5 against S. epidermidis, S. aureus, MRSA and E. coli were performed by using the methods described previously by Wiegand et al. ([2008]). In brief, two-fold serial dilutions of the derivatives were prepared in tubes containing 4 mL MHB medium, yielding final concentrations from 200 to 0.78 μM. Bacterial cultures were grown overnight and adjusted so that the bacterial suspension turbidity was equivalent to a 0.5 McFarland standard (~1 × 10^8 CFU/mL) and further diluted to 1:200 into MHB medium. The contents in the tubes were mixed thoroughly and incubated at 37°C with shaking at 220 rpm for 16–20 h. The MIC endpoint was defined as the lowest concentration at which there was no visible growth in the tubes. The MBC values were assessed by plating 100 μL samples from each negative (no visible bacterial growth) culture tube from the MIC assays onto blank MHB agar plates. After incubation at 37°C for 24 h, the bacterial colonies on the plates were counted. The MBC was the concentration at which a 99.9% reduction of the original inoculum was observed (Pridmore et al., [2011]). In this assay, all the experiments were performed three times.

S. aureus ATCC 49230 = experiment: MIC tube-dilution assay; format: cell-based; details: Staphylococcus aureus, ATCC49230
Protocol: as §1

[3] = system: S. epidermidis ATCC 12228; experiment: MIC tube-dilution assay; format: cell-based; details: Staphylococcus epidermidis, ATCC12228
Protocol: as §1

[4] = Erythrocyte hemolysis assay; format: cell-based; details: human, erythrocytes (5% suspension), 37°C; for hemolysis at 1 h, 200 µM: at 200 μM; for hemolysis at 1 h: at MIC (against S epidermidis ATCC 35984)
Protocol: Hemolytic activities of the derivatives were measured on healthy human erythrocytes. A pure suspension of erythrocytes was obtained by washing a blood sample with sterile 0.9% NaCl saline solution. Erythrocytes were resuspended in normal saline to give a 5% solution, then treated with MIC, 4 × MIC or 200 μM of the derivatives for 1 h at 37°C in 96-well microtiter plates. After the incubation and centrifugation at 1,000 g for 10 min, supernatants were transferred to another sterile plate and the absorbance at 570 nm was measured on a spectrophotometric microplate reader. A positive control (100% hemolysis) and a negative control (0% hemolysis) were achieved by incubating with 1% Triton-X 100 and 0.1% DMSO, respectively. Each assay was performed in triplicate and repeated three times.

YycG′ protein = target: T1, YycG′ protein (Staphylococcus epidermidis, UniProt Q5HK19); experiment: Inhibition of YycG′ autophosphorylation (Kinase-Glo Luminescent Kinase Assay); format: biochemical; details: 4 μM ATP; for inhibition of the enzymatic activity of YycG′ protein: 100 μM derivative, 2 μg YycG′ protein; for IC50: Kinase-Glo, 2 μg YycG′, read-out: IC50 (inhibition of autophosphorylation of recombinant YycG′)
T1 construct: made in house; host or cells: E. coli BL21(DE3)
T1 sequence (Q5HK19 384-602 limits assumed): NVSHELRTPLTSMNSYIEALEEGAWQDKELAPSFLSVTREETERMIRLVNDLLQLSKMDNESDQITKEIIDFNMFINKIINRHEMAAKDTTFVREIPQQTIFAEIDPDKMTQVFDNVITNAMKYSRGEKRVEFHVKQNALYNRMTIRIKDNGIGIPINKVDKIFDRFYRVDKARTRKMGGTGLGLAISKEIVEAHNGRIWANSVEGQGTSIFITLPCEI
Protocol: The construction of the recombinant plasmid pET28a-YycG′ (containing the HATPase_c and HisKA domains of YycG) has been previously described (Liu et al., [2014]). After being used to transform E. coli strain BL21(DE3), this recombinant plasmid was induced to express YycG′ protein by 0.4 mM isopropyl-1-thio-β-D-galactopyranoside at 21°C for 12 h. Then, the bacterial cells were disrupted by sonication and centrifuged, the supernatant was purified by Ni–NTA agarose (Qiagen, Los Angeles, CA, USA). The inhibitory activities of the compound 5 derivatives on the ATPase activity of the YycG′ protein were measured using the Kinase-Glo™ Luminescent Kinase Assay (Promega, Madison, WI, USA). Briefly, 2 μg purified YycG′ protein was pre-incubated with a series of dilutions of the derivatives in reaction buffer [40 mM Tris (pH 7.5), 20 mM MgCl2 and 0.1 mg/ml BSA] at room temperature for 30 min, 4 μM ATP was added and incubated for 30 min at room temperature, then Kinase-Glo™ Reagent was added to detect the remaining amount of ATP, as reflected by luminescence intensity (RLU). In parallel, YycG′ protein with no addition of the derivatives was used as the control and ATP only was used as a blank. The rate of inhibition of protein phosphorylation (Rp) by the derivatives was calculated by the following equation: Rp = RLU(YycG^′+derivative+ATP+Kinase−Glo™)−RLU(YycG^′+ATP+Kinase−Glo™)/RLU(ATP+Kinase−Glo™)−RLU(YycG^′+ATP+Kinase−Glo™) × 100 IC50 (the concentration resulting in 50% inhibition of YycG′ protein autophosphorylation) was obtained by using Origin v7.0 software (OriginLab, Northampton, USA).

E. coli ATCC 25922 = experiment: MIC tube-dilution assay; format: cell-based, Escherichia coli; details: E. coli ATCC29522 (head), highest concentration used 200 μM
Protocol: as §1

Cytotoxicity MTT assay = format: cell-based; details: African green monkey, Vero cells, highest concentration tested 200 μM
Protocol: A Cell Proliferation Kit I (MTT; Roche, Indianapolis, USA) was used to detect the cytotoxicity of the derivatives against Vero cells. Vero cells were added to 96-well microtiter plates at a concentration of 5 × 10^4 cells/well in 100 μL of culture medium. After 24 h, culture medium was replaced by 100 μL serial dilutions of the derivatives (0.78–100 μM) and the cells were incubated for 4 h in an atmosphere of 5% CO2, then 10 μL of the MTT stock solution was added to each well and the plate returned to the 37°C incubator for 4 h. Subsequent to the incubation, the purple formazan salts were dissolved in DMSO, and the absorbance of each well was measured at wavelengths of 595 nm (test) and 655 nm (reference). Cells treated with the solvent (0.1% DMSO) were used as a blank control. The concentration of the derivatives that produced a 50% cytotoxicity effect on Vero cells (CC50) was calculated using Origin v8.0 software (Origin Lab, Northampton, USA).

[5] = system: S. epidermidis ATCC 35984 mature biofilms; design: method as in Liu et al., 2014; details: vancomycin 128 μg/mL; ref Liu et al., 2014; cited from earlier work
[6] = system: S. epidermidis ATCC 35984; experiment: Time-kill assay against fast-growing S. epidermidis; format: cell-based, Staphylococcus epidermidis; details: 4 × MIC
Protocol: Suspensions of S. epidermidis (1 × 10^7 CFU/mL) were prepared and separately treated with the derivatives of compound 5 or vancomycin at concentrations of 4 × MIC in fresh MHB. Time-kill experiments were performed at 37°C with shaking at 220 rpm under aerobic conditions. Aliquots (1 mL) were removed from the culture medium at different time points (0, 1, 3, 5, 8, and 24 h), serially diluted and 100 μL of each of the dilutions plated out onto tryptic soy agar. After incubating at 37°C for 24 h, emergent bacterial colonies were counted, and the activity of the derivatives against fast-growing S. epidermidis cells was determined by plotting log10 colony counts (CFU/mL) against time. Bactericidal activity was defined as a 3-log10 decrease in CFU/mL. This assay was performed in triplicate and similar results were obtained.

[7] = Escherichia coli, ATCC 25922 / ATCC 29522

| Structure (SMILES) | MIC [2] | MIC (S. aureus ATCC 49230) | MIC [3] | inhibition of the enzymatic activity of YycG′ protein (YycG′ protein) | IC50 (YycG′ protein) | MIC (E. coli ATCC 25922) | MIC (E. coli ATCC 25922; [7]) | PI/Total (reduction of the proportion of viable cells in mature biofilms) [1] | PI fluorescence quantity (dead cells) [1] | SYTO9 fluorescence quantity (viable cells) [1] | MBC [2] | hemolysis at 1 h, 200 µM [4] | hemolysis at 1 h [4] | CC50 at 4 h (Cytotoxicity MTT assay) | reduction of living cells in mature biofilm [5] | time required to achieve a bactericidal effect ([6]; bactericidal = 3-log10 decrease in CFU/mL) | reduction in CFU/mL ([6]; within/after 1 h, inoculum ~1 × 10^7 CFU/mL, MHB) |
| --- | --- | --- | --- | --- | --- | --- | --- | --- | --- | --- | --- | --- | --- | --- | --- | --- | --- |
| O=C(O)c1cccc(-c2ccc(C=c3sc4n(c3=O)C(c3ccc(Cl)cc3)C=C(c3ccccc3)N=4)o2)c1 (centres unmarked) [H5-25, 3-{5-[5-(4-chloro-phenyl)-3-oxo-7-phenyl-5H-thiazolo [3,2-a]pyrimidin-2-ylidenemethyl]-furan-2-yl}-benzoic acid] | 1.56 µM (≈ 0.841 µg/mL) | 1.56 µM (≈ 0.841 µg/mL) | 1.56 µM (≈ 0.841 µg/mL) | 51.42% | 80.2 µM | >200 µM | > 200 µM | 43.80% | 47.687 ± 4.77 | 61.188 ± 5.49 | 50 µM (≈ 27 µg/mL) | 0.39 ± 0.09% | 0.27 ± 0.01% | > 200 µM |  |  |  |
| CN[C@H](CC(C)C)C(=O)N[C@H]1C(=O)N[C@@H](CC(N)=O)C(=O)N[C@H]2C(=O)N[C@H]3C(=O)N[C@H](C(=O)N[C@H](C(=O)O)c4cc(O)cc(O)c4-c4cc3ccc4O)[C@H](O)c3ccc(c(Cl)c3)Oc3cc2cc(c3O[C@@H]2O[C@H](CO)[C@@H](O)[C@H](O)[C@H]2O[C@H]2C[C@](C)(N)[C@H](O)[C@H](C)O2)Oc2ccc(cc2Cl)[C@H]1O [vancomycin, reference compound] |  |  |  |  |  |  |  |  |  |  |  |  |  |  | 11.4% | > 5 h | ~ 1 log |
| COc1ccc(C2C=C(c3ccccc3)N=c3sc(=Cc4ccc(-c5cccc(C(=O)O)c5)o4)c(=O)n32)cc1 (centres unmarked) [H5-24, 3-{5-[5-(4-methoxy-phenyl)-3-oxo-7-phenyl-5H-thiazolo[3,2-a]pyrimidin-2-ylidenemethyl]-furan-2-yl}-benzoic acid] | 1.56 µM (≈ 0.834 µg/mL) | 1.56 µM (≈ 0.834 µg/mL) | 1.56 µM (≈ 0.834 µg/mL) | 49.92% | 82.2 µM | >200 µM | > 200 µM | 77.5% | 43.242 ± 5.65 | 12.554 ± 4.23 | 50 µM (≈ 26.7 µg/mL) | 0.32 ± 0.05% | 0.17 ± 0.11% | > 200 µM |  |  |  |

Now from value to molecule, other results behind:

| MIC [2] | MIC (S. aureus ATCC 49230) | MIC [3] | inhibition of the enzymatic activity of YycG′ protein (YycG′ protein) | IC50 (YycG′ protein) | MIC (E. coli ATCC 25922) | MIC (E. coli ATCC 25922; [7]) | Structure (SMILES) | PI/Total (reduction of the proportion of viable cells in mature biofilms) [1] | PI fluorescence quantity (dead cells) [1] | SYTO9 fluorescence quantity (viable cells) [1] | MBC [2] | hemolysis at 1 h, 200 µM [4] | hemolysis at 1 h [4] | CC50 at 4 h (Cytotoxicity MTT assay) | reduction of living cells in mature biofilm [5] | time required to achieve a bactericidal effect ([6]; bactericidal = 3-log10 decrease in CFU/mL) | reduction in CFU/mL ([6]; within/after 1 h, inoculum ~1 × 10^7 CFU/mL, MHB) |
| --- | --- | --- | --- | --- | --- | --- | --- | --- | --- | --- | --- | --- | --- | --- | --- | --- | --- |
| 6.25 µM (≈ 3.88 µg/mL) | 6.25 µM (≈ 3.88 µg/mL) | 6.25 µM (≈ 3.88 µg/mL) |  |  |  | > 200 µM | CCOC(=O)C1=C(c2ccccc2)N=c2s/c(=C\c3ccc(-c4cccc(C(=O)O)c4)o3)c(=O)n2C1c1ccc2c(c1)OCO2 (centres unmarked) [Compound 5, {5-benzo [1,3]dioxol-5-yl-2-[5-(3-carboxy-phenyl)-furan-2-ylmethylene]-3-oxo-7-phenyl-2,3-dihydro-5H-thiazolo [3,2-a]pyrimidine-6-carboxylic} acid ethyl ester] |  |  |  | 25 µM (≈ 15.5 µg/mL) | 0.51 ± 0.06% | 0.31 ± 0.16% | > 200 µM |  |  |  |
| 1.56 µM (≈ 0.953 µg/mL) | 1.56 µM (≈ 0.953 µg/mL) | 1.56 µM (≈ 0.953 µg/mL) | 64.78% | 77.2 µM | >200 µM | > 200 µM | CCOC(=O)C1=C(c2ccccc2)N=c2sc(=Cc3ccc(-c4cccc(C(=O)O)c4)o3)c(=O)n2C1c1ccc(Cl)cc1 (centres unmarked) [H5-23, 2-{5-(3-carboxy-phenyl)-furan-2-ylmethylene]-5-(4-chloro-phenyl)-3-oxo-7-phenyl-2,3-di-hydro-5H-thiazolo[3,2-a]pyrimidine-6-carboxylic acid ethyl ester] | 85.7% | 61.928 ± 5.05 | 10.333 ± 4.39 | 25 µM (≈ 15.3 µg/mL) | 0.27 ± 0.01% | 0.27 ± 0.35% | > 200 µM |  |  |  |
